# Data from ChEMBL document CHEMBL5390304, “Phenyl-quinoline-xxo-butyric Acid Inhibitors of Histone Lysine Demethylase for the Treatment of Cancer” (ACS Med Chem Lett, 2023).
# What was measured:
# [1] = biological target: Lysine-specific demethylase 5B (Homo sapiens, UniProt Q9UGL1); assay: Inhibition of human recombinant KDM5B assessed as decarboxylation of [1-14C] alphaKG by measuring 14CO2 release using H3K4me3 as substrate incubated for 1 hr
# [2] = biological target: T1, Lysine-specific demethylase 4A (Homo sapiens, UniProt O75164); assay: Inhibition of human recombinant KDM4A assessed as decarboxylation of [1-14C] alphaKG at pH 7.4 using H3K9me3 as substrates incubated for 1 hr
# T1 sequence (O75164 whole entry): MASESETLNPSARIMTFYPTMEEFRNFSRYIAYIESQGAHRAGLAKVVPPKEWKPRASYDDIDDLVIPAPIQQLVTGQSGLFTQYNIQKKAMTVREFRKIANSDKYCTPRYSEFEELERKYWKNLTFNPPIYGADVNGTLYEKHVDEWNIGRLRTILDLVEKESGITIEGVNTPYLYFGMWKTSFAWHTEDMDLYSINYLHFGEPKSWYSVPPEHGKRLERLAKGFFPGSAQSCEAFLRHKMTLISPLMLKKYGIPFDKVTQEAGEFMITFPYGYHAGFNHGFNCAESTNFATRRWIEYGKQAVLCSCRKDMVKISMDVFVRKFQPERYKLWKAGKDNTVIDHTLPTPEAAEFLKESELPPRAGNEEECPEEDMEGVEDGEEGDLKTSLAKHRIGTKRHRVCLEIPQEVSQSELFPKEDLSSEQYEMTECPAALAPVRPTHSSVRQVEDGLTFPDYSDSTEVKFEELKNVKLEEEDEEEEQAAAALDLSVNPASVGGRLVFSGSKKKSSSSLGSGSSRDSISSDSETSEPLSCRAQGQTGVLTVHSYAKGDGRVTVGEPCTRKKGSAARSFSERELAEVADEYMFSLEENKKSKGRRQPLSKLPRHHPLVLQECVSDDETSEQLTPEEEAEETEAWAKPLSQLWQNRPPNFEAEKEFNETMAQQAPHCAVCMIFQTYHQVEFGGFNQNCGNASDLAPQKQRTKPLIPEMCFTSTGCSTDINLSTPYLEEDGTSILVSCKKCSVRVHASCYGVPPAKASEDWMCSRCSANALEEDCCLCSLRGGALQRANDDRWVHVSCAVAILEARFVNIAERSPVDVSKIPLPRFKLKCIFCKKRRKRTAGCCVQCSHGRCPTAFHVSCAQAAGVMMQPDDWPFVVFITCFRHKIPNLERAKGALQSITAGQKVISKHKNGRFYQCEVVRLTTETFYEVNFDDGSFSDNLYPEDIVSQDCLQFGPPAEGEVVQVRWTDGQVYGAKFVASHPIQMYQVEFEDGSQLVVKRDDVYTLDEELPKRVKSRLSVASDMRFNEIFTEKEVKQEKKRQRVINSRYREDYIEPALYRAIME
# Sequence of Lysine-specific demethylase 5B (Q9UGL1 whole entry): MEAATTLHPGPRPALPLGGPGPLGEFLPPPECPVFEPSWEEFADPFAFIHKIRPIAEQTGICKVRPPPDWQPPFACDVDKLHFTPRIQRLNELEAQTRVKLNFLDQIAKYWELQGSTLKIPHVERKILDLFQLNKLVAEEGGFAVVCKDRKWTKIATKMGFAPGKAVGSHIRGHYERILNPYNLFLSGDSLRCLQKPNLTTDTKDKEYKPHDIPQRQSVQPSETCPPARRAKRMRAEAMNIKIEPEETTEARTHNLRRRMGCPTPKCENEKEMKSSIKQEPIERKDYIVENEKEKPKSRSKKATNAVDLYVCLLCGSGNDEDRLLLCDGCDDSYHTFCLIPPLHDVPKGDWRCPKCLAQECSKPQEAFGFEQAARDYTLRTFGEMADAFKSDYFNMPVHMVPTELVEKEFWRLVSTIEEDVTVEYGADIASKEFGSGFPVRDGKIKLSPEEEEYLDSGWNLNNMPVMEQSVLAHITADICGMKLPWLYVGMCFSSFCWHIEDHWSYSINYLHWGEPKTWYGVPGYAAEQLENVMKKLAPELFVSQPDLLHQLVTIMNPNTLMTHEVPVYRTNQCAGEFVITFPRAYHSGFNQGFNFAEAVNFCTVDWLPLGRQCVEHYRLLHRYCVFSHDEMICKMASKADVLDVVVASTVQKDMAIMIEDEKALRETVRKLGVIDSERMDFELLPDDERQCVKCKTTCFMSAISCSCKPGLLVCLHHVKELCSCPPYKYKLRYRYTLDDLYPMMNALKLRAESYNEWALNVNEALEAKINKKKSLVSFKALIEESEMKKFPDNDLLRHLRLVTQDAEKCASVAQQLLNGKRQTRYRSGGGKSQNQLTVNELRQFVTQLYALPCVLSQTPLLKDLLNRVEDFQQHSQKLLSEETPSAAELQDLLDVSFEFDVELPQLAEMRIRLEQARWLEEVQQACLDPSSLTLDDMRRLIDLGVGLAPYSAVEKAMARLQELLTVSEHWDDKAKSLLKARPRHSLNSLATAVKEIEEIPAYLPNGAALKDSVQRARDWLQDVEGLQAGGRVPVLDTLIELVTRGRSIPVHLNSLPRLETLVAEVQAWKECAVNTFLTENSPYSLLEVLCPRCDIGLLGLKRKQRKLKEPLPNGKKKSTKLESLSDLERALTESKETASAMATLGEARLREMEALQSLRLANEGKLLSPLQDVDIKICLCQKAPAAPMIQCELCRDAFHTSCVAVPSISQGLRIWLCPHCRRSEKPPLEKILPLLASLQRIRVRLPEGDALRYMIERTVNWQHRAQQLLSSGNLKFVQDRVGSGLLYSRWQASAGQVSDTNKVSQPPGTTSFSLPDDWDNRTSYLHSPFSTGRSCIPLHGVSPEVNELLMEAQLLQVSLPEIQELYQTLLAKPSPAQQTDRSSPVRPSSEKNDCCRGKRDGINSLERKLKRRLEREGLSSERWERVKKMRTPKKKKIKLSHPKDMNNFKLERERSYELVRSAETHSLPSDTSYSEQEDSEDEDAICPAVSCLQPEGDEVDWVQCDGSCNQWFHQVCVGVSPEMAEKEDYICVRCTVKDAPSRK
Compound,IC50 [1] [nM],IC50 [2] [nM]
N#Cc1c(O)c(C(=O)CCC(=O)O)nc2ccc(Cc3ccccc3)cc12,970,> 40000
COc1ccc(-c2ccc3c(C#N)c(O)c(C(=O)CCC(=O)O)nc3c2)cc1,220,> 40000
N#Cc1ccc(-c2cccc3c(C#N)c(O)c(C(=O)CCC(=O)O)nc23)cc1,130,7900
N#Cc1c(O)c(C(=O)CCC(=O)O)nc2ccccc12,130,40000
Cc1cc(C)cc(-c2ccc3c(C#N)c(O)c(C(=O)CCC(=O)O)nc3c2)c1,370,> 40000
Cc1cccc(-c2ccc3c(C#N)c(O)c(C(=O)CCC(=O)O)nc3c2)c1,230,22000
O=C(O)CCC(=O)c1nc2cc(-c3ccccc3)ccc2cc1O,> 40000,> 40000

# The remaining lines, values ahead:
IC50 [1] [nM],IC50 [2] [nM],Compound
150,> 40000,N#Cc1c(O)c(C(=O)CCC(=O)O)nc2cc(Sc3ccccc3)ccc12
240,> 40000,N#Cc1c(O)c(C(=O)CCC(=O)O)nc2cc(Cc3ccccc3)ccc12
90,3900,N#Cc1c(O)c(C(=O)CCC(=O)O)nc2cc(-c3ccccc3)ccc12
310,> 40000,N#Cc1c(O)c(C(=O)CCC(=O)O)nc2ccc(-c3ccccc3)cc12
